Among the data in ChEMBL document CHEMBL5143755, “Restoration of Motor Function Post-Neurological Injury Using Serotonergic Agonist” (ACS Med Chem Lett, 2022) are EC50 values, retold here.

pEC50: −log10 of the molar value.

For the assay, the target named is 5-hydroxytryptamine receptor 2A (Homo sapiens, UniProt P28223). Kind of assay: Agonist activity at human 5-HT2A receptor assessed as activation of calcium mobilization incubated for 2 mins by Calcium-6 dye based FLIPR assay. In kind it is functional.
Chain of 5-hydroxytryptamine receptor 2A (P28223 whole entry): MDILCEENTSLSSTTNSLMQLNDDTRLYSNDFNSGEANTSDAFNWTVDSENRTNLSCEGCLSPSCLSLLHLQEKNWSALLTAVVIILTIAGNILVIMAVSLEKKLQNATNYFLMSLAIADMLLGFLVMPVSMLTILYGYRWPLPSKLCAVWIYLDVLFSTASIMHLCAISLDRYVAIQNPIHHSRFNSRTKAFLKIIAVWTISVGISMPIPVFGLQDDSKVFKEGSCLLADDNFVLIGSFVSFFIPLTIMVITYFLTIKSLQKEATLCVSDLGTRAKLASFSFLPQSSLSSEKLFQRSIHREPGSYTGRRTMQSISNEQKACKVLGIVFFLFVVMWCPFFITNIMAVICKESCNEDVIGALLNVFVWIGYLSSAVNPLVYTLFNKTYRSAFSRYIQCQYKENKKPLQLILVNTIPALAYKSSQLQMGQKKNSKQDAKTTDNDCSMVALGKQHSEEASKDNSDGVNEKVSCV

Take `[2H]C1([2H])CC(c2c[nH]c3cccc(OCc4ccccc4)c23)C([2H])([2H])N1C` (stereo not given): the negative logarithm of the EC50 (pEC50) was less than 5.00.

Take `[2H]C([2H])N1CCC(c2c[nH]c3cccc(O)c23)C1` (stereo not given): the pEC50 was greater than 6.00.

Regarding `[2H]C1([2H])CC(c2c[nH]c3cccc(OCc4ccccc4)c23)C([2H])([2H])N1` (stereo not given), the pEC50 is greater than 6.00.

Turning to `[2H]C1([2H])CC(c2c[nH]c3cccc(O)c23)C([2H])([2H])N1C` (stereo not given), the pEC50 was greater than 6.00.

Turning to `[2H]C1([2H])CC(c2c[nH]c3cccc(O)c23)C([2H])([2H])N1` (stereo not given), the pEC50 was less than 5.00.

Usually pEC50 stands for the EC50 on a negative log10 scale, so that one unit is a factor of ten.
